Results on five compounds are retold here after patent US5151517A, “Derivatives of tetrahydro-2,3,6,7,1H,5H,11H-(1)benzopyrano(6,7,8,i,j)quinolizinone-11 usable as markers for organic compounds, particularly biological compounds with a view to their detection by chemiluminescence or fluorescence” (Laboratories Eurobio, priority 1989, dated 1992).

Molecules are shown by their SMILES.

Series [1] is described as follows: Fluorescence measurements (quantum efficiency vs quinine disulphate, sensitivity). The series is classed as physicochemical. The conditions noted are these: for S = fluorescence sensitivity: acetone/ethyl acetate 75:25; for RF = fluorescence quantum efficiency: acetone/ethyl acetate 75:25, 10^-6 mole/l coumarin, 20 ± 2° C., vs quinine disulphate. As for the experimental part: The fluorescence measurements are carried out with a Perkin Elmer LS5 spectrifluorometer with 2 nm slit widths for two monochromators.
(§1) Fluorescence and Absorbance Measurements
(§2) These measurements were carried out at 20^+ 2° C. and the quantum efficiencies of fluorescence RF of coumarins-1, 311 and 102 were determined compared with quinine disulphate, whose fluorescence quantum efficiency is 0.546 using the Parker method described in Analyst, 85, 1960, p. 587 using a 2 mg/l quinine disulphate solution in 0.1N H2 SO4.
(§3) For the coumarins, use was made of a solution of acetone and ethyl acetate in a volume ratio of 75:25 with a 10^-6 mole/l coumarin concentration ensuring in each case an absorbance below 0.05.

A short description of series [2]: Absorbance measurements (molecular extinction coefficient). The series is classed as physicochemical. Conditions: acetone/ethyl acetate 75:25, 10^-6 mole/l coumarin. As for the experimental part:
(§4) The absorbance measurements were carried out with a Jobin Yvon JY3 spectrophotometer. The chemiluminescence measurements were obtained by using a Jobin Yvon JY4 spectrofluorimeter with 10 nm slit widths. The cell for the liquid samples is a 10×10 mm quart cell with a capacity of 3 ml and filled with 2 ml of solution, which corresponds to a real solution volume exposed to the photomultiplier of 1.35 ml.
as §1, §2, §3

Series [3] in a line: Chemiluminescence measurements with DNPO (printed DMPO in table 2) and H2O2. The series is classed as physicochemical. Conditions: DMPO = bis(dinitro-2,4 phenyl)oxalate; for RC = chemiluminescence quantum efficiency: 10^-3 mole/l coumarin; for RE = excitation efficiency: RC = Rex × RF. As for the experimental part: as §4
(§5) In order to determine the chemiluminescence quantum efficiencies Rc, the intensity was estimated as a function of time at the emission maximum. When the intensity decrease is relatively low, the emission spectrum is plotted and then the intensity is followed as a function of time until it has dropped to 2% of the maximum intensity.
(§6) The other luminescence parameters are measured directly. These consist of the maximum intensity (lmax), the time for reaching the maximum intensity (Tmax) and the time for reaching half the maximum intensity following the maximum time (T1/2).
(§7) The chemi luminescence efficiency Rc is calculated by the Rauhut method described in J. Am. Chem. Soc., 88, 15, 1966, p.3604.
(§8) The excitation efficiency Rex is determined on the basis of the formula: […]
(§9) For chemiluminescence measurements with TCPO, to 1 ml of the solution containing 10^-3 mole/l of coumarin are added 0.5 ml of a 2·10^-3 mole/l TCPO solution in ethyl acetate, 0.5 ml of a 2·10^-2 mole/l H2 O2 solution in acetone and 10 μl of a 0.1 mole/l imidazole nitrate buffer at pH 7.5. When DNPO is used, to the same solution of coumarin in acetone are added 0.5 ml of a 10^-3 mole/l DNPO solution in ethyl acetate and 0.5 ml of a 10^-2 mole/l H2 O2 solution in acetone.

Series [4] can be described thus: Chemiluminescence measurements with TCPO and H2O2. In kind it is physicochemical. Conditions: TCPO = bis(trichloro-2,4,6 phenyl) oxalate; for RC = chemiluminescence quantum efficiency: 10^-3 mole/l coumarin, imidazole nitrate buffer pH 7.5; for RE = excitation efficiency: RC = Rex × RF. As for the experimental part: as §4, §5, §6, §7, §8, §9
The nature of series [5]: Chemiluminescence with TCPO and H2O2 as a function of the coumarin-102 concentration. The series is classed as physicochemical. Conditions: for Imax (maximum intensity) / RC × 10^4 (chemiluminescence efficiency) / T1/2 (time for reaching half the maximum intensity following the maximum time) / Tmax (time for reaching the maximum intensity): TCPO and H2O2. As for the experimental part: The absorbance measurements were carried out with a Jobin Yvon JY3 spectrophotometer. The chemiluminescence measurements were obtained by using a Jobin Yvon JY4 spectrofluorimeter with 10 nm slit widths. The cell for the liquid samples is a 10×10 mm quart cell with a capacity of 3 ml and filled with 2 ml of solution, which corresponds to a real solution volume exposed to the photomultiplier of 1.35 ml. In order to determine the chemiluminescence quantum efficiencies Rc, the intensity was estimated as a function of time at the emission maximum. […] The other luminescence parameters are measured directly. These consist of the maximum intensity (lmax), the time for reaching the maximum intensity (Tmax) and the time for reaching half the maximum intensity following the maximum time (T1/2). The chemi luminescence efficiency Rc is calculated by the Rauhut method described in J. Am. Chem. […] When DNPO is used, to the same solution of coumarin in acetone are added 0.5 ml of a 10^-3 mole/l DNPO solution in ethyl acetate and 0.5 ml of a 10^-2 mole/l H2 O2 solution in acetone.

A short description of series [6]: Chemiluminescence as a function of the pH of the solution. The series is classed as physicochemical. As for the experimental part:
as §4, §5, §6, §7, §9
Table 4 gives the variations of the chemiluminescence efficiency, lmax, Tmax and T1/2, as a function of the pH of the solution. […] However, the values for Tmax and T1/2 decrease when the pH increases beyond 5.

The nature of series [7]: Comparison of fluorescence, absorbance and chemiluminescence properties of coumarin nuclei. The series is classed as physicochemical. Conditions: compared with coumarine-1 and coumarine-311, tables 1 and 2. As for the experimental part:
The fluorescence measurements are carried out with a Perkin Elmer LS5 spectrifluorometer with 2 nm slit widths for two monochromators. The absorbance measurements were carried out with a Jobin Yvon JY3 spectrophotometer. The chemiluminescence measurements were obtained by using a Jobin Yvon JY4 spectrofluorimeter with 10 nm slit widths. The cell for the liquid samples is a 10×10 mm quart cell with a capacity of 3 ml and filled with 2 ml of solution, which corresponds to a real solution volume exposed to the photomultiplier of 1.35 ml. […] For the coumarins, use was made of a solution of acetone and ethyl acetate in a volume ratio of 75:25 with a 10^-6 mole/l coumarin concentration ensuring in each case an absorbance below 0.05. […] When DNPO is used, to the same solution of coumarin in acetone are added 0.5 ml of a 10^-3 mole/l DNPO solution in ethyl acetate and 0.5 ml of a 10^-2 mole/l H2 O2 solution in acetone.

The conditions of series [8]: reference standard; 2 mg/l in 0.1N H2SO4; cited from earlier work.
Series [9] can be described thus: Storage stability of luminarine-7 in dimethyl formamide solution. In kind it is physicochemical. Conditions: -20° C., in the presence of P2O5. As for the experimental part: (§10) Stirring takes place for 2 hours and then the dicyclohexylurea formed is filtered. The remaining product, luminarine-7, is kept in solution in dimethyl formamide.
Series [10] can be described thus: Hydrosolubility of a dried aliquot of luminarine-7. In kind it is physicochemical. Conditions: dried aliquot portion. As for the experimental part:
as §10

For `Cc1cc(=O)oc2c3c4c(cc12)CCCN4CCC3` [COUMARINE-102, tetrahydro-2,3,5,6,7,1H,5H,11H-(1)-benzopyrano(6,7,8-ij)methyl-9 quinolizinone-11], the “S = fluorescence sensitivity” value in [1] is given as 36 10^3. In addition, the “RF = fluorescence quantum efficiency” value in series [1] came out at 0.57. In addition, the ε = molecular extinction coefficient, 365 nm in series [2] turned out to be 23000 M⁻¹ cm⁻¹. Moreover, the figures for the “RC = chemiluminescence quantum efficiency” value in series [3] and in series [4] were 0.26 10^2 E · mole^-1 and 0.37 10^2 E · mole^-1, respectively. Moreover, the entries for the “RE = excitation efficiency” value in [3] and in series [4] were 0.45 10^2 and 0.65 10^2, respectively. Moreover, the “Imax (maximum intensity)” value in series [5] ((C102) 1.4 × 10^-3) is 301 A.U; in series [5] ((C102) 1.4 × 10^-6), 75 A.U; in series [5] ((C102) 1.4 × 10^-7) it was 31 A.U; in series [5] ((C102) 1.4 × 10^-8) it was 3.2 A.U; in series [5] ((C102) 1.4 × 10^-9) it was 0.3 A.U; in [6] (pH 4) it was 24 A.U. For the same compound, the “Imax (maximum intensity)” value in series [6] (pH 5) was 17 A.U; in series [6] (pH 6) it was 25 A.U; in series [6] (pH 7), 110 A.U; in series [6] (pH 8), 245 A.U. The “RC × 10^4 (chemiluminescence efficiency)” value in [5] ((C102) 1.4 × 10^-3) amounted to 12.0 E · mole^-1; in series [5] ((C102) 1.4 × 10^-6) it was 4.14 E · mole^-1; in [5] ((C102) 1.4 × 10^-7), 2.31 E · mole^-1; in [5] ((C102) 1.4 × 10^-8) it was 0.40 E · mole^-1; in series [5] ((C102) 1.4 × 10^-9), 0.20 E · mole^-1; in series [6] (pH 4) it was 1.52 E · mole^-1. In addition, the “RC × 10^4 (chemiluminescence efficiency)” value turned out to be 1.58 E · mole^-1 in [6] (pH 5), 2.34 E · mole^-1 in [6] (pH 6), 2.23 E · mole^-1 in series [6] (pH 7) and 1.60 E · mole^-1 in series [6] (pH 8). Also, the “T1/2 (time for reaching half the maximum intensity following the maximum time)” value worked out at 6 s in [5] ((C102) 1.4 × 10^-3); 9 s in series [5] ((C102) 1.4 × 10^-6); 7.2 s in series [5] ((C102) 1.4 × 10^-7); 6 s in series [5] ((C102) 1.4 × 10^-8); 4.8 s in series [5] ((C102) 1.4 × 10^-9); 300 s in series [6] (pH 4). Further, the “T1/2 (time for reaching half the maximum intensity following the maximum time)” value worked out at 360 s in series [6] (pH 5), 336 s in series [6] (pH 6), 108 s in [6] (pH 7) and 24 s in [6] (pH 8). The “Tmax (time for reaching the maximum intensity)” value in [5] ((C102) 1.4 × 10^-3) turned out to be 12 s; in [5] ((C102) 1.4 × 10^-6), 12 s; in series [5] ((C102) 1.4 × 10^-7), 12 s; in series [5] ((C102) 1.4 × 10^-8), 12 s; in [5] ((C102) 1.4 × 10^-9), 12 s; in series [6] (pH 4) it was 48 s. Also, the “Tmax (time for reaching the maximum intensity)” value in [6] (pH 5) came to 60 s; in series [6] (pH 6), 48 s; in series [6] (pH 7) it was 24 s; in series [6] (pH 8) it was 12 s. Also, in series [5] (TCPO and H2O2, table 3), the “chemiluminescence efficiency as a function of concentration” value is “chemiluminescence efficiency increases with the coumar in-102 concentration”. Moreover, the “fluorescence, absorbance and chemiluminescence properties” value in series [7] was “better fluorescence, absorbance and chemiluminescece properties”.

Consider `C=CC1CN2CCC1CC2C(O)c1ccnc2ccc(OC)cc12` (stereo not drawn) [quinine disulphate], for which, in series [8], the fluorescence quantum efficiency was 0.546.

Consider `Cc1cc(=O)oc2cc(N(C)C)ccc12` [COUMARINE-311, dimethylamino-7 methyl-4 coumarin], for which, in series [1], the “S = fluorescence sensitivity” value was 40 10^3 and the “RF = fluorescence quantum efficiency” value was found to be 0.52. The compound also registered a ε = molecular extinction coefficient, 365 nm in series [2] of 26900 M⁻¹ cm⁻¹. In [3], the “RC = chemiluminescence quantum efficiency” value is recorded as 0.13 10^2 E · mole^-1 and the “RE = excitation efficiency” value is reported as 0.24 10^2. Also, in series [4], the “RC = chemiluminescence quantum efficiency” value is listed as 0.17 10^2 E · mole^-1 and the “RE = excitation efficiency” value is 0.32 10^2.

In the case of `CCN(CC)c1ccc2c(C)cc(=O)oc2c1` [COUMARINE-1, dimethylamino-7 methyl-4 coumarin], in series [1], the “S = fluorescence sensitivity” value is given as 57 10^3 and the “RF = fluorescence quantum efficiency” value worked out at 0.55. Moreover, the “ε = molecular extinction coefficient, 365 nm” value in series [2] is 38 000. For the same compound, in series [3], the “RC = chemiluminescence quantum efficiency” value is 0.18 10^2 E · mole^-1 and the “RE = excitation efficiency” value was 0.33 10^2. In series [4], the “RC = chemiluminescence quantum efficiency” value was 0.37 10^2 E · mole^-1 and the “RE = excitation efficiency” value is on record as 0.67 10^2.

With `O=C(CCC(=O)ON1C(=O)CCC1=O)NCCOCCOCCOCCOCCOCCNC(=O)Cc1cc(=O)oc2c3c4c(cc12)CCCN4CCC3` [luminarine-7], the storage stability result in [9] is “several months at -20 °C without any deterioration”. In series [10], the hydrosolubility entry is given as “total hydrosolubility”.
